The source of these data is patent US20120009320A1, “COMPOSITIONS COMPRISING MONATIN AND CALCIUM” (priority 2009, published 2012).

Marks after values point to notes of the source that are not given here. Peptide text beside a SMILES is read from it.

For experiment [1] the following is noted: Schiffman, Physiology & Behavior 68 (2000); cited from earlier work.
The subject of experiment [2] is panelists. The experiment in a line: Sweetness matching of monatin/salt combinations in water pH 7 and citric/citrate buffer pH 3, Examples 3-5. Format: in vivo, human. The protocol: Test and reference solutions were prepared in the same medium. The SEVs of monatin/salt combinations at the appropriate concentrations were measured and compared to the SEV of monatin measured in the absence of any salts. […] Monatin-containing test samples and sucrose references were prepared in the same medium. Based on the previous observations that the sweetness of monatin relative to sucrose is sweeter at acidic pH, this study was carried out under two pH conditions; specifically, in water at pH 7-7.5 and in a citric/citrate buffer at pH 3.0. 2R,4R-Monatin mono potassium salt was used as an illustrative form of monatin for the experiments below. All monatin solutions were prepared ‘as is’, i.e., a 40 ppm monatin solution is 40 ppm of monatin mono potassium salt. A sweetness matching procedure was adopted. […] Each test sample was either monatin control or monatin plus designated salt at the stated concentration. Panelists were instructed to taste the test sample and then to identify the reference sample that matched the perceived sweetness of the test sample. If the sweetness of the test sample was judged to fall between that of two references, panelists were instructed to estimate sweetness to one decimal point. Panelists evaluated each sample in duplicate. Results for each test sample were averaged. […] The five samples were tested at pH 7 (water medium) and at pH 3 (citric/citrate buffer). […] The weight percent of calcium in the salt is different for each of the calcium salts. As such, the weight percent of the calcium salt in each sample is calculated in order to determine how much salt is needed to deliver 1200 ppm of calcium cations. […] The weight percent of the other calcium salts is similarly calculated based on the molar weight percent of calcium in the calcium salt. […] The samples were created at pH 3 and pH 7. The impact of other metal ions, specifically potassium and magnesium, (i.e. […] These ions were tested in the form and concentrations found in cow's milk.

The nature of experiment [3]: Sweetness of monatin stereoisomers relative to sucrose by weight (from SEV). The settings on record: general statement of the description. Format: in vivo. The protocol: As used herein, “sucrose equivalency value”, or SEV, is a measure of sweetness. The SEV is the concentration (% w/v) of a sucrose solution that gives a degree of sweetness that is perceived to be the same degree of sweetness as that of a test sample. For purposes of this disclosure, the SEV of an aqueous or dairy solution containing monatin is determined through comparison of the monatin-containing solution to a series of sucrose containing solutions prepared in the same medium (see Example 1).
Monatin-containing compositions are described herein as being “X” times as sweet as sucrose. The various stereoisomers of monatin are also described as being “X” times sweeter than sucrose. These values are determined from the SEV of the compositions.

The mark [4] stands for this setting: calcium salt at 1200 ppm Ca2+ with 40 ppm monatin vs monatin only, pH 3.0.
The mark [5] stands for this setting: calcium salt at 1200 ppm Ca2+ with 40 ppm monatin vs monatin only, pH 7.0.
[6] abbreviates: calcium salt at 1200 ppm Ca2+ with 40 ppm monatin, pH 3.0.
The mark [7] stands for this setting: calcium salt at 1200 ppm Ca2+ with 40 ppm monatin, pH 7.0.
Setting [8] is: salt (1450 ppm K+ or 170 ppm Mg2+) with 40 ppm monatin vs monatin only, pH 3.0.
The mark [9] stands for this setting: salt (1450 ppm K+ or 170 ppm Mg2+) with 40 ppm monatin, pH 3.0, KCl solutions very salty, estimates difficult.
Setting [10] is: salt (1450 ppm K+ or 170 ppm Mg++) with 40 ppm monatin vs monatin only, pH 7.0.
The mark [11] stands for this setting: salt (1450 ppm K+ or 170 ppm Mg++) with 40 ppm monatin, pH 7.0, KCl solutions very salty, estimates difficult.
The mark [12] stands for this setting: 200 ppm calcium (from calcium chloride), 40 ppm monatin, pH 3.0.
Where [13] appears, read: 200 ppm calcium (from calcium chloride), 40 ppm monatin, pH 7.0.
Setting [14] is: 400 ppm calcium (from calcium chloride), 40 ppm monatin, pH 3.0.
Setting [15] is: 400 ppm calcium (from calcium chloride), 40 ppm monatin, pH 7.0.
The mark [16] stands for this setting: 800 ppm calcium (from calcium chloride), 40 ppm monatin, pH 3.0.
Setting [17] is: 800 ppm calcium (from calcium chloride), 40 ppm monatin, pH 7.0.
Setting [18] is: 1200 ppm calcium (from calcium chloride), 40 ppm monatin, pH 3.0.
The mark [19] stands for this setting: 1200 ppm calcium (from calcium chloride), 40 ppm monatin, pH 7.0.

In the case of `COC(=O)[C@H](Cc1ccccc1)NC(=O)[C@@H](N)CC(=O)O` [aspartame] (HELM PEPTIDE1{D.F.[CO[*:1]]}$$$$V2.0), the “effect of the addition of calcium ions on the sweetness intensity of the sweetener” value in experiment [1] is “did not have an effect”.
For `CC(O)C(=O)[O-].CC(O)C(=O)[O-].[Ca+2]` (stereo not drawn) [Calcium lactate], the results for the “Sweetness Enhancement” value in experiment [2] (setting [4]) and in experiment [2] (setting [5]) were 10% and 13%, respectively. Moreover, the “Sucrose Equivalency Value” in experiment [2] (setting [6]) and in experiment [2] (setting [7]) was 9.5% throughout.
In the case of `NC(CC(O)(Cc1c[nH]c2ccccc12)C(=O)O)C(=O)O` (stereo not drawn) [S,S stereoisomer of monatin, 4-amino-2-hydroxy-2-(1H-indol-3-ylmethyl)-pentanedioic acid], in experiment [3], the “times sweeter than sucrose by weight” value is on record as 50-200 times.
Consider `[Cl-].[K+]` [Potassium chloride], for which the “Sweetness Enhancement” value in experiment [2] (setting [8]) was 7%; in experiment [2] (setting [10]), 4%. Besides, the “Sucrose Equivalency Value” is on record as 9.2% in experiment [2] (setting [9]) and 8.7% in experiment [2] (setting [11]).
For the compound Calcium gluconate, the results for the “Sweetness Enhancement” value in experiment [2] (setting [4]) and in experiment [2] (setting [5]) were 7% and 13%, respectively. The entries for the “Sucrose Equivalency Value” in experiment [2] (setting [6]) and in experiment [2] (setting [7]) were 9.2% and 9.5%, respectively.
Consider Magnesium gluconate, for which the “Sweetness Enhancement” value in experiment [2] (setting [8]) is on record as 6%; in experiment [2] (setting [10]) it was 9%. Besides, the results for the “Sucrose Equivalency Value” in experiment [2] (setting [9]) and in experiment [2] (setting [11]) were 9.1% and 9.2%, respectively.
With `OC[C@H]1O[C@@](CO)(O[C@H]2O[C@H](CO)[C@@H](O)[C@H](O)[C@H]2O)[C@@H](O)[C@@H]1O` [sucrose], in experiment [1], the “effect of the addition of calcium ions on the sweetness intensity of the sweetener” value is listed as “did not have an effect”.
On to `[Ca+2].[Cl-].[Cl-]` [Calcium chloride], for which the “Sucrose Equivalency Value” is reported as 9.5% in experiment [2] (setting [12]); 10.0% in experiment [2] (setting [13]); 10.0% in experiment [2] (setting [14]); 10.2% in experiment [2] (setting [15]); 10.2% in experiment [2] (setting [16]); 10.2% in experiment [2] (setting [17]). The “Sucrose Equivalency Value” in experiment [2] (setting [18]) is recorded as 10.3%; in experiment [2] (setting [19]), 10.1%; in experiment [2] (1600 ppm calcium (from calcium chloride), 40 ppm monatin, pH 3.0, solutions very salty, SEV estimate very difficult), 10.2** %; in experiment [2] (1600 ppm calcium (from calcium chloride), 40 ppm monatin, pH 7.0, solutions very salty, SEV estimate very difficult), 10.2** %; in experiment [2] (setting [6]) it was 10.3%; in experiment [2] (setting [7]) it was 10.1%. Besides, the “Sweetness Enhancement” value in experiment [2] (setting [12]) is 10%; in experiment [2] (setting [13]), 19%; in experiment [2] (setting [14]), 16%; in experiment [2] (setting [15]), 21%; in experiment [2] (setting [16]), 19%; in experiment [2] (setting [17]), 21%. Besides, the “Sweetness Enhancement” value is 20% in experiment [2] (setting [18]); 20% in experiment [2] (setting [19]); 19% in experiment [2] (1600 ppm calcium (from calcium chloride), 40 ppm monatin, pH 3.0); 21% in experiment [2] (1600 ppm calcium (from calcium chloride), 40 ppm monatin, pH 7.0); 20% in experiment [2] (setting [4]); 20% in experiment [2] (setting [5]).
On to calcium, for which the “Sweetness Enhancement” value in experiment [2] (setting [12]) is 10%; in experiment [2] (setting [13]) it was 19%.
